{"source": "patent US8580794B2", "about": "(AbbVie Inc., priority 2009, dated 2013)", "data": [{"molecular_target": "GST-Bc1-2 (Homo sapiens, UniProt P10415)", "sequence (P10415 whole entry)": "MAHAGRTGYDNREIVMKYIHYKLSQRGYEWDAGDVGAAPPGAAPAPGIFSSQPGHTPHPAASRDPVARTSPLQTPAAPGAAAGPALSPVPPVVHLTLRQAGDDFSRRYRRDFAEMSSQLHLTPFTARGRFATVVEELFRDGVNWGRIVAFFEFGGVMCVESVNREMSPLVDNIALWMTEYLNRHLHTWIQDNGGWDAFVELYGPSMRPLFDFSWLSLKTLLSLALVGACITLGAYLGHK", "experiment": "Time Resolved-Fluorescence Resonance Energy Transfer (TR-FRET) Bcl-2 binding assay with F-Bak peptide probe", "conditions": "GST-Bcl-2 1 nM, F-Bak probe 100 nM, Tb-anti-GST 1 nM; '<' = below limit of detection; read-out: TR-FRET Bcl-2 Binding Ki", "units": {"Ki": "nM"}, "values": [{"smiles": "CN(C)CC(=O)N1CCOC(CNc2ccc(S(=O)(=O)NC(=O)c3ccc(N4CCN(CC5=C(c6ccc(Cl)cc6)CC(C)(C)CC5)CC4)cc3Oc3cnc4[nH]ccc4c3)cc2[N+](=O)[O-])C1", "note": "(stereo not shown) [Example 215, 4-(4-{[2-(4-chlorophenyl)-4,4-dimethylcyclohex-1-en-1-yl]methyl}piperazin-1-yl)-N-{[4-({[4-(N,N-dimethylglycyl)morpholin-2-yl]methyl}amino)-3-nitrophenyl]sulfonyl}-2-(1H-pyrrolo[2,3-b]pyridin-5-yloxy)benzamide]", "Ki": "< 0.01"}, {"smiles": "CC1(C)CCC(CN2CCN(c3ccc(C(=O)NS(=O)(=O)c4ccc(N[C@@H]5CCN(CC(F)F)C5)c([N+](=O)[O-])c4)c(Oc4cnc5[nH]ccc5c4)c3)CC2)=C(c2ccc(Cl)cc2)C1", "note": "[Example 180, 4-(4-{[2-(4-chlorophenyl)-4,4-dimethylcyclohex-1-en-1-yl]methyl}piperazin-1-yl)-N-[(4-{[(3R)-1-(2,2-difluoroethyl)pyrrolidin-3-yl]amino}-3-nitrophenyl)sulfonyl]-2-(1H-pyrrolo[2,3-b]pyridin-5-yloxy)benzamide]", "Ki": "< 0.01"}, {"smiles": "CC1(C)CCC(CN2CCN(c3ccc(C(=O)NS(=O)(=O)c4ccc(NCC5CN(CC(=O)O)CCO5)c([N+](=O)[O-])c4)c(Oc4cnc5[nH]ccc5c4)c3)CC2)=C(c2ccc(Cl)cc2)C1", "note": "(stereo not shown) [Example 216, (2-{[(4-{[4-(4-{[2-(4-chlorophenyl)-4,4-dimethylcyclohex-1-en-1-yl]methyl}piperazin-1-yl)-2-(1H-pyrrolo[2,3-b]pyridin-5-yloxy)benzoyl]sulfamoyl}-2-nitrophenyl)amino]methyl}morpholin-4-yl)acetic acid]", "Ki": "< 0.01"}, {"smiles": "CC1(C)CCC(CN2CCN(c3ccc(C(=O)NS(=O)(=O)c4ccc(NCC5CCOCC5)c(C#N)c4)c(Oc4cnc5[nH]ccc5c4)c3)CC2)=C(c2ccc(Cl)cc2)C1", "note": "[Example 110, 4-(4-{[2-(4-chlorophenyl)-4,4-dimethylcyclohex-1-en-1-yl]methyl}piperazin-1-yl)-N-({3-cyano-4-[(tetrahydro-2H-pyran-4-ylmethyl)amino]phenyl}sulfonyl)-2-(1H-pyrrolo[2,3-b]pyridin-5-yloxy)benzamide]", "Ki": 0.557}, {"smiles": "CC1(C)CCC(CN2CCN(c3ccc(C(=O)NS(=O)(=O)c4ccc(N[C@H]5CC[C@H](N6CCN(C7CCOCC7)CC6)CC5)c([N+](=O)[O-])c4)c(Oc4cnc5[nH]ccc5c4)c3)CC2)=C(c2ccc(Cl)cc2)C1", "note": "[Example 128, Trans-4-(4-{[2-(4-chlorophenyl)-4,4-dimethylcyclohex-1-en-1-yl]methyl}piperazin-1-yl)-N-[(3-nitro-4-{[4-(4-tetrahydro-2H-pyran-4-ylpiperazin-1-yl)cyclohexyl]amino}phenyl)sulfonyl]-2-(1H-pyrrolo[2,3-b]pyridin-5-yloxy)benzamide]", "Ki": "< 0.01"}, {"smiles": "CC1(C)CCC(CN2CCN(c3ccc(C(=O)NS(=O)(=O)c4ccc(N[C@@H]5CCN(CC#N)C5)c([N+](=O)[O-])c4)c(Oc4cnc5[nH]ccc5c4)c3)CC2)=C(c2ccc(Cl)cc2)C1", "note": "[Example 262, 4-(4-{[2-(4-chlorophenyl)-4,4-dimethylcyclohex-1-en-1-yl]methyl}piperazin-1-yl)-N-[(4-{[(3R)-1-(cyanomethyl)pyrrolidin-3-yl]amino}-3-nitrophenyl)sulfonyl]-2-(1H-pyrrolo[2,3-b]pyridin-5-yloxy)benzamide]", "Ki": "< 0.01"}, {"smiles": "CC1(C)CCC(CN2CCN(c3ccc(C(=O)NS(=O)(=O)c4ccc(N[C@H]5CCN(C6CCOCC6)C5)c([N+](=O)[O-])c4)c(Oc4cnc5[nH]ccc5c4)c3)CC2)=C(c2ccc(Cl)cc2)C1", "note": "[Example 132, 4-(4-{[2-(4-chlorophenyl)-4,4-dimethylcyclohex-1-en-1-yl]methyl}piperazin-1-yl)-N-[(3-nitro-4-{[(3S)-1-tetrahydro-2H-pyran-4-ylpyrrolidin-3-yl]amino}phenyl)sulfonyl]-2-(1H-pyrrolo[2,3-b]pyridin-5-yloxy)benzamide]", "Ki": "< 0.01"}, {"smiles": "CC1(C)CCC(CN2CCN(c3ccc(C(=O)NS(=O)(=O)c4ccc(NCc5cccc(OC(F)(F)F)c5)c([N+](=O)[O-])c4)c(Oc4cnc5[nH]ccc5c4)c3)CC2)=C(c2ccc(Cl)cc2)C1", "note": "[Example 175, 4-(4-{[2-(4-chlorophenyl)-4,4-dimethylcyclohex-1-en-1-yl]methyl}piperazin-1-yl)-N-[(3-nitro-4-{[3-(trifluoromethoxy)benzyl]amino}phenyl)sulfonyl]-2-(1H-pyrrolo[2,3-b]pyridin-5-yloxy)benzamide]", "Ki": 0.119}, {"smiles": "CO[C@H]1CC[C@@H](CNc2ccc(S(=O)(=O)NC(=O)c3ccc(N4CCN(CC5=C(c6ccc(Cl)cc6)CC(C)(C)OC5)CC4)cc3Oc3cnc4[nH]ccc4c3)cc2[N+](=O)[O-])CC1", "note": "[Example 72, Cis-4-(4-{[4-(4-chlorophenyl)-6,6-dimethyl-5,6-dihydro-2H-pyran-3-yl]methyl}piperazin-1-yl)-N-[(4-{[(4-methoxycyclohexyl)methyl]amino}-3-nitrophenyl)sulfonyl]-2-(1H-pyrrolo[2,3-b]pyridin-5-yloxy)benzamide]", "Ki": "< 0.01"}, {"smiles": "CC1(C)CCC(CN2CCN(c3ccc(C(=O)NS(=O)(=O)c4ccc(NC5CCN(C(C)(C)C)CC5)c(S(=O)(=O)C(F)(F)F)c4)c(Oc4cnc5[nH]ccc5c4)c3)CC2)=C(c2ccc(Cl)cc2)C1", "note": "[Example 240, N-({4-[(1-tert-butylpiperidin-4-yl)amino]-3-[(trifluoromethyl)sulfonyl]phenyl}sulfonyl)-4-(4-{[2-(4-chlorophenyl)-4,4-dimethylcyclohex-1-en-1-yl]methyl}piperazin-1-yl)-2-(1H-pyrrolo[2,3-b]pyridin-5-yloxy)benzamide]", "Ki": "< 0.01"}, {"smiles": "CC1(C)CCC(CN2CCN(c3ccc(C(=O)NS(=O)(=O)c4ccc(OC[C@H]5CC[C@H](N6CCOCC6)CC5)c(Cl)c4)c(Oc4cnc5[nH]ccc5c4)c3)CC2)=C(c2ccc(Cl)cc2)C1", "note": "[Example 303, N-[(3-chloro-4-{[trans-4-(morpholin-4-yl)cyclohexyl]methoxy}phenyl)sulfonyl]-4-(4-{[2-(4-chlorophenyl)-4,4-dimethylcyclohex-1-en-1-yl]methyl}piperazin-1-yl)-2-(1H-pyrrolo[2,3-b]pyridin-5-yloxy)benzamide]", "Ki": 0.044}, {"smiles": "CC1(C)CCC(CN2CCN(c3ccc(C(=O)NS(=O)(=O)c4ccc(NCC5COCCN5C5CCOCC5)c([N+](=O)[O-])c4)c(Oc4cnc5[nH]ccc5c4)c3)CC2)=C(c2ccc(Cl)cc2)C1", "note": "(stereo not shown) [Example 169, 4-(4-{[2-(4-chlorophenyl)-4,4-dimethylcyclohex-1-en-1-yl]methyl}piperazin-1-yl)-N-[(3-nitro-4-{[(4-tetrahydro-2H-pyran-4-ylmorpholin-3-yl)methyl]amino}phenyl)sulfonyl]-2-(1H-pyrrolo[2,3-b]pyridin-5-yloxy)benzamide]", "Ki": 0.021}, {"smiles": "CC1(C)CCC(CN2CCN(c3ccc(C(=O)NS(=O)(=O)c4ccc(NCC5CN(C6COC6)C5)c([N+](=O)[O-])c4)c(Oc4cnc5[nH]ccc5c4)c3)CC2)=C(c2ccc(Cl)cc2)C1", "note": "[Example 162, 4-(4-{[2-(4-chlorophenyl)-4,4-dimethylcyclohex-1-en-1-yl]methyl}piperazin-1-yl)-N-[(3-nitro-4-{[(1-oxetan-3-ylazetidin-3-yl)methyl]amino}phenyl)sulfonyl]-2-(1H-pyrrolo[2,3-b]pyridin-5-yloxy)benzamide]", "Ki": "< 0.01"}]}]}
